According to patent US7446199B2, “Compositions useful as inhibitors of protein kinases” (Vertex Pharmaceuticals Incorporated, priority 2003, dated 2008):

target: T1, TAK1A-TAB fusion protein (Homo sapiens, UniProt O43318); test: TAK-1 inhibition assay, radiometric filter binding assay; type: biochemical; conditions: 50 μM ATP, 12 μM bovine myelin basic protein, 20 nM TAK1A-TAB fusion protein
T1 construct: using 20 nM TAK1A-TAB fusion protein
T1 sequence (O43318 with tags, fused parts or gaps isoform O43318-2 limits assumed): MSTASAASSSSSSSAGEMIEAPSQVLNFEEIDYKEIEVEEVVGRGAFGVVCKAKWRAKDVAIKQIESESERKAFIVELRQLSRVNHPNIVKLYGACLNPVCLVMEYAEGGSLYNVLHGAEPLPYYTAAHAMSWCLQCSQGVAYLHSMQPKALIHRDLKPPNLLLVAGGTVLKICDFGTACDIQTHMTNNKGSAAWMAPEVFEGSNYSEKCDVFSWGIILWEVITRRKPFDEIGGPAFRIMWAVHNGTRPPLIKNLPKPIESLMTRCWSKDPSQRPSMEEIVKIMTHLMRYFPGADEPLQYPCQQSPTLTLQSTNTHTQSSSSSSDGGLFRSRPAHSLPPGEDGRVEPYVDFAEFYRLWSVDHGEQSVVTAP
Description: Compounds were screened for their ability to inhibit TAK1A kinase activity using a radiometric filter binding assay. Reactions were carried out in a solution containing Buffer A (100 mM HEPES (pH 7.5), 10 mM MgCl2), 25 mM NaCl, 2 mM DTT, and 1.5% DMSO. Final substrate concentrations in the assay were 50 μM ATP (a mixture of unlabeled ATP (Sigma Chemicals, St Louis, Mo.) and ^33P-labeled ATP (PerkinElmer Life Sciences, Boston, Mass.) for a final specific activity of 50 Ci/mol), and 12 μM bovine myelin basic protein (MBP, Vertex Pharmaceuticals, Cambridge, Mass.). Reactions were carried out at ambient temperature (˜20° C.) using 20 nM TAK1A-TAB fusion protein. Under these conditions the extent of reaction is linear with time for a period of 2 hours.
A test compound of the present invention (1 μL in DMSO) was combined with ATP and Buffer A in a final volume of 47 μL in a 96 well plate. Typically, a 6 point titration was conducted by preparing serial dilutions (from 10 mM compound stocks) with DMSO of the test compounds of the present invention in daughter plates, for final concentrations spanning 0.046 μM to 3.73 μM. The reaction was initiated by the addition of 20 μl of an enzyme stock solution consisting of TAK1A-TAB fusion (described by Sugita, T. et al. in Biochem. Biophys. Res. Comm. 2002, 297, 1277-1281), MBP, Buffer A, NaCl, and DTT. The reaction was allowed to proceed for two hours at ambient temperature, then quenched with an equal volume of 10 mM unlabeled ATP in 10% trichloroacetic acid. A 110 μL aliquot of the quenched reaction was transferred to a Multiscreen PH filter plate (Millipore, Billerica, Mass.) and allowed to incubate at ambient temperature overnight (typically 16-20 hours). Following incubation the filter plates were washed with 3×150 μL aliquots of 5% trichloroacetic acid using a modified Biotek Elx405 plate washer. A 70 μL aliquot of Microscint 20 scintillation fluid (PerkinElmer) was added to each well, and the plate was then sealed and read on a TopCount NXT microplate scintillation counter (PerkinElmer). The Ki values were determined from the rate data as a function of inhibitor concentration.

SMILES	Ki [nM]
CN(C)CC#Cc1cnc2[nH]cc(-c3oncc3-c3cccc(F)c3F)c2c1 [Compound 53, (3-{3-[4-(2,3-Difluoro-phenyl)-isoxazol-5-yl]-1H-pyrrolo[2,3-b]pyridin-5-yl}-prop-2-ynyl)-dimethyl-amine]	200 to 1000
CN(C)c1cccc(-c2cnc3[nH]cc(-c4oncc4-c4cccc(F)c4F)c3c2)c1 [Compound 61, (3-{3-[4-(2,3-Difluoro-phenyl)-isoxazol-5-yl]-1H-pyrrolo[2,3-b]pyridin-5-yl}-phenyl)-dimethyl-amine]	200 to 1000
Fc1cccc(-c2cnoc2-c2c[nH]c3ncc(C4CCNCC4)cc23)c1F [Compound 62, 3-[4-(2,3-Difluoro-phenyl)-isoxazol-5-yl]-5-piperidin-4-yl-1H-pyrrolo[2,3-b]pyridine]	1000 to 12500
Fc1ccc(-c2cnc3[nH]cc(-c4oncc4-c4cccc(F)c4F)c3c2)cn1 [Compound 69, 3-[4-(2,3-Difluoro-phenyl)-isoxazol-5-yl]-5-(6-fluoro-pyridin-3-yl)-1H-pyrrolo[2,3-b]pyridine]	200 to 1000
CCN1CCC(c2cnc3[nH]cc(-c4oncc4-c4cccc(F)c4F)c3c2)CC1 [Compound 72, 3-[4-(2,3-Difluoro-phenyl)-isoxazol-5-yl]-5-(1-ethyl-piperidin-4-yl)-1H-pyrrolo[2,3-b]pyridine]	1000 to 12500
Fc1cccc(-c2cnoc2-c2c[nH]c3ncc(-c4cnc5[nH]ccc5c4)cc23)c1F [Compound 77, 3-[4-(2,3-Difluoro-phenyl)-isoxazol-5-yl]-1H,1′H-[5,5′]bi[pyrrolo[2,3-b]pyridinyl]]	200 to 1000
COc1ccnc(-c2cnc3[nH]cc(-c4oncc4-c4cccc(F)c4F)c3c2)c1 [Compound 78, 3-[4-(2,3-Difluoro-phenyl)-isoxazol-5-yl]-5-(4-methoxy-pyridin-2-yl)-1H-pyrrolo[2,3-b]pyridine]	200 to 1000
CN(C)C(=O)c1ccc(-c2cnc3[nH]cc(-c4oncc4-c4cccc(F)c4F)c3c2)nc1 [Compound 79, 6-{3-[4-(2,3-Difluoro-phenyl)-isoxazol-5-yl]-1H-pyrrolo [2,3-b]pyridin-5-yl}-N,N-dimethyl-nicotinamide]	200 to 1000
CN(C)Cc1ccc(-c2cnc3[nH]cc(-c4oncc4-c4cccc(F)c4F)c3c2)nc1 [Compound 84, (6-{3-[4-(2,3-Difluoro-phenyl)-isoxazol-5-yl]-1H-pyrrolo[2,3-b]pyridin-5-yl}-pyridin-3-ylmethyl)-dimethyl-amine]	200 to 1000
CS(=O)(=O)n1ccc2cc(-c3cnc4[nH]cc(-c5oncc5-c5cccc(F)c5F)c4c3)cnc21 [Compound 97, 3′-[4-(2,3-Difluoro-phenyl)-isoxazol-5-yl]-1-methanesulfonyl-1H, 1′H-[5,5′]bi[pyrrolo[2,3-b]pyridinyl]]	200 to 1000
CN(C)c1ccc(-c2cnc3[nH]cc(-c4nncn4-c4cccc(F)c4F)c3c2)cc1 [Compound 106, (4-{3-[4-(2,3-Difluoro-phenyl)-4H-[1,2,4]triazol-3-yl]-1H-pyrrolo[2,3-b]pyridin-5-yl}-phenyl)-dimethyl-amine]	200 to 1000

The remaining lines, values ahead:

Ki [nM]	SMILES
200 to 1000	Fc1cccc(-n2cnnc2-c2c[nH]c3ncc(-c4ccc(CN5CCOCC5)cc4)cc23)c1F [Compound 109, 3-[4-(2,3-Difluoro-phenyl)-4H-[1,2,4]triazol-3-yl]-5-(4-morpholin-4-ylmethyl-phenyl)-1H-pyrrolo[2,3-b]pyridine]
< 200	CN1CCN(c2ccc(-c3cnc4[nH]cc(-c5nncn5-c5cccc(F)c5F)c4c3)cc2)CC1 [Compound 110, 3-[4-(2,3-Difluoro-phenyl)-4H-[1,2,4]triazol-3-yl]-5-[4-(4-methyl-piperazin-1-yl)-phenyl]-1H-pyrrolo[2,3-b]pyridine]
1000 to 12500	CN1CCN(c2ccc(-c3cnc4[nH]cc(-c5nncn5-c5cccc(F)c5F)c4c3)cn2)CC1 [Compound 112]
1000 to 12500	Fc1cccc(-n2cnnc2-c2c[nH]c3ncc(-c4cccnc4)cc23)c1F [Compound 113, 3-[4-(2,3-Difluoro-phenyl)-4H-[1,2,4]triazol-3-yl]-5-pyridin-3-yl-1H-pyrrolo[2,3-b]pyridine]
1000 to 12500	Fc1cccc(-n2cnnc2-c2c[nH]c3ncc(-c4ccncc4)cc23)c1F [Compound 114, 3-[4-(2,3-Difluoro-phenyl)-4H-[1,2,4]triazol-3-yl]-5-pyridin-4-yl-1H-pyrrolo[2,3-b]pyridine]
200 to 1000	Fc1cccc(-n2cnnc2-c2c[nH]c3ncc(-c4ccc(N5CCC[C@H]5CN5CCCC5)nc4)cc23)c1F [Compound 115, 3-[4-(2,3-Difluoro-phenyl)-4H-[1,2,4]triazol-3-yl]-5-[6-(2-pyrrolidin-1-ylmethyl-pyrrolidin-1-yl)-pyridin-3-yl]-1H-pyrrolo[2,3-b]pyridine]
200 to 1000	OC1CCN(c2ccc(-c3cnc4[nH]cc(-c5nncn5-c5cccc(F)c5F)c4c3)cn2)CC1 [Compound 116, 5′-{3-[4-(2,3-Difluoro-phenyl)-4H-[1,2,4]triazol-3-yl]-1H-pyrrolo[2,3-b]pyridin-5-yl}-3,4,5,6-tetrahydro-2H-[1,2′]bi-pyridinyl-4-ol]
200 to 1000	CN1CCCN(c2ccc(-c3cnc4[nH]cc(-c5nncn5-c5cccc(F)c5F)c4c3)cn2)CC1 [Compound 117, 3-[4-(2,3-Difluoro-phenyl)-4H-[1,2,4]triazol-3-yl]-5-[6-(4-methyl-[1,4]diazepan-1-yl)-pyridin-3-yl]-1H-pyrrolo [2,3-b]-pyridine]
200 to 1000	Fc1cccc(-n2cnnc2-c2c[nH]c3ncc(-c4ccc(N5CCCC5)nc4)cc23)c1F [Compound 118, 3-[4-(2,3-Difluoro-phenyl)-4H-[1,2,4]triazol-3-yl]-5-(6-pyrrolidin-1-yl-pyridin-3-yl)-1H-pyrrolo[2,3-b]pyridine]
1000 to 12500	CN(C)CCNc1ccc(-c2cnc3[nH]cc(-c4nncn4-c4cccc(F)c4F)c3c2)cn1 [Compound 119, N′-(5-{3-[4-(2,3-Difluoro-phenyl)-4H-[1,2,4]triazol-3-yl]-1H-pyrrolo[2,3-b]pyridin-5-yl}-pyridin-2-yl)-N,N-dimethyl-ethane-1,2-diamine]
200 to 1000	Fc1cccc(-c2cnoc2-c2c[nH]c3ncc(/C=C/n4cncn4)cc23)c1F [Compound 133, 3-[4-(2,3-Difluoro-phenyl)-isoxazol-5-yl]-5-(2-[1,2,4]triazol-1-yl-vinyl)-1H-pyrrolo[2,3-b]pyridine]
< 200	Cc1noc(-c2c[nH]c3ncc(-c4ccc(N5CCN(C)CC5)cc4)cc23)c1-c1cccc(F)c1F [Compound 135, 3-[4-(2,3-Difluoro-phenyl)-3-methyl-isoxazol-5-yl]-5-[4-(4-methyl-piperazin-1-yl)-phenyl]-1H-pyrrolo[2,3-b]pyridine]
< 200	Fc1cccc(-c2cnoc2-c2c[nH]c3ncc(C4=CCC(NCc5ccccc5)CC4)cc23)c1F (stereo not shown) [Compound 136, Benzyl-(4-{3-[4-(2,3-difluoro-phenyl)-isoxazol-5-yl]-1H-pyrrolo[2,3-b]pyridin-5-yl}-cyclohex-3-enyl)-amine]
< 200	NC1CC=C(c2cnc3[nH]cc(-c4oncc4-c4cccc(F)c4F)c3c2)CC1 (stereo not shown) [Compound 137, 4-{3-[4-(2,3-Difluoro-phenyl)-isoxazol-5-yl]-1H-pyrrolo [2,3-b]pyridin-5-yl}-cyclohex-3-enylamine]
